The test system of the experiment is MV-4-11 cells. The experiment can be described thus: Gene expression microarray analysis (Affymetrix PrimeView) and GSEA. It counts as cell-based, human. More on the design: RFU PODN (11730768_x_at) / Fold change /veh PODN (11730768_x_at) / RFU LINC00158 (11744669_a_at) / Fold change /veh LINC00158 (11744669_a_at) / RFU DUSP10 (11751237_a_at) / Fold change /veh DUSP10 (11751237_a_at) / RFU ID3 (11757404_x_at) / Fold change /veh ID3 (11757404_x_at) / RFU PLEKHG5 (11737974_s_at) / Fold change /veh PLEKHG5 (11737974_s_at) / RFU LRRC4B (11730491_at) / Fold change /veh LRRC4B (11730491_at) / RFU GIMAP4 (11747438_a_at) / Fold change /veh GIMAP4 (11747438_a_at) / RFU KRT8 (11758183_x_at) / Fold change /veh KRT8 (11758183_x_at) / RFU CNN1 (11734310_a_at) / Fold change /veh CNN1 (11734310_a_at) / RFU VPS37D (11726825_at) / Fold change /veh VPS37D (11726825_at) / RFU C10orf10 (11716522_x_at) / Fold change /veh C10orf10 (11716522_x_at) / RFU KIR2DL2 /// KIR2DL4 /// KIR2DL5A /// KIR2DL5B /// KIR2DS1 /// KIR2DS2 /// KIR2DS3 /// KIR2DS4 /// KIR3DL3 /// KIR3DL3 /// KIR3DS1 (11738374_at) / Fold change /veh KIR2DL2 /// KIR2DL4 /// KIR2DL5A /// KIR2DL5B /// KIR2DS1 /// KIR2DS2 /// KIR2DS3 /// KIR2DS4 /// KIR3DL3 /// KIR3DL3 /// KIR3DS1 (11738374_at) / RFU C1QL1 (11718748_at) / Fold change /veh C1QL1 (11718748_at) / RFU TMPRSS4 (11747572_a_at) / Fold change /veh TMPRSS4 (11747572_a_at) / RFU HAMP (11756126_x_at) / Fold change /veh HAMP (11756126_x_at) / RFU RNFT2 (11725882_a_at) / Fold change /veh RNFT2 (11725882_a_at) / RFU NR4A2 (11747474_a_at) / Fold change /veh NR4A2 (11747474_a_at) / RFU ABCC12 (11746883_a_at) / Fold change /veh ABCC12 (11746883_a_at) / RFU TMEM136 (11760407_x_at) / Fold change /veh TMEM136 (11760407_x_at) / RFU CLDN22 /// WWC2 (11732394_at) / Fold change /veh CLDN22 /// WWC2 (11732394_at) / RFU HLA-DPB1 (11760878_x_at) / Fold change /veh HLA-DPB1 (11760878_x_at) / RFU SPINT1 (11716480_a_at) / Fold change /veh SPINT1 (11716480_a_at) / RFU GAP43 (11754022_s_at) / Fold change /veh GAP43 (11754022_s_at) / RFU A4GNT (11735810_at) / Fold change /veh A4GNT (11735810_at) / RFU PRB3 (11715151_x_at) / Fold change /veh PRB3 (11715151_x_at) / RFU TUBB4B (11761932_at) / Fold change /veh TUBB4B (11761932_at) / RFU CAPN14 (11732068_a_at) / Fold change /veh CAPN14 (11732068_a_at) / RFU TMCC2 (11721928_a_at) / Fold change /veh TMCC2 (11721928_a_at) / RFU IRGQ (11745062_a_at) / Fold change /veh IRGQ (11745062_a_at) / RFU FAM174B (11720279_a_at) / Fold change /veh FAM174B (11720279_a_at) / RFU TMPRSS4 (11748680_a_at) / Fold change /veh TMPRSS4 (11748680_a_at) / RFU FAM212B (11763350_a_at) / Fold change /veh FAM212B (11763350_a_at) / RFU PLEKHG5 (11743358_a_at) / Fold change /veh PLEKHG5 (11743358_a_at) / RFU ZSCAN30 (11745921_a_at) / Fold change /veh ZSCAN30 (11745921_a_at) / RFU CMKLR1 (11741424_a_at) / Fold change /veh CMKLR1 (11741424_a_at) / RFU LOC101060620 /// MAPK8IP1 (11723275_at) / Fold change /veh LOC101060620 /// MAPK8IP1 (11723275_at) / RFU SPTSSB (11747773_x_at) / Fold change /veh SPTSSB (11747773_x_at) / RFU PRSS12 (11739890_at) / Fold change /veh PRSS12 (11739890_at) / RFU BIN1 (11741810_x_at) / Fold change /veh BIN1 (11741810_x_at) / RFU WNT11 (11732464_a_at) / Fold change /veh WNT11 (11732464_a_at) / RFU C10orf10 (11716521_a_at) / Fold change /veh C10orf10 (11716521_a_at) / RFU C5orf56 (11738089_at) / Fold change /veh C5orf56 (11738089_at) / RFU CYB561 (11721691_x_at) / Fold change /veh CYB561 (11721691_x_at) / RFU ANKRD19P (11752326_a_at) / Fold change /veh ANKRD19P (11752326_a_at) / RFU OR2T12 /// OR2T33 /// OR2T8 (11738714_s_at) / Fold change /veh OR2T12 /// OR2T33 /// OR2T8 (11738714_s_at) / RFU VCAN (11748164_a_at) / Fold change /veh VCAN (11748164_a_at) / RFU JSRP1 (11732532_at) / Fold change /veh JSRP1 (11732532_at) / RFU KRTAP10-11 (11738290_x_at) / Fold change /veh KRTAP10-11 (11738290_x_at) / RFU MYO3A (11730013_a_at) / Fold change /veh MYO3A (11730013_a_at) / RFU EBF3 (11725865_a_at) / Fold change /veh EBF3 (11725865_a_at) / RFU CAMK2N1 (11719241_x_at) / Fold change /veh CAMK2N1 (11719241_x_at) / RFU C5orf56 (11738088_a_at) / Fold change /veh C5orf56 (11738088_a_at) / RFU OLFML3 (11715873_a_at) / Fold change /veh OLFML3 (11715873_a_at) / RFU LOC100653217 /// NTM (11731650_a_at) / Fold change /veh LOC100653217 /// NTM (11731650_a_at) / RFU MAPK11 (11762145_a_at) / Fold change /veh MAPK11 (11762145_a_at) / RFU FIZ1 (11724087_x_at) / Fold change /veh FIZ1 (11724087_x_at) / RFU OASL (11726364_x_at) / Fold change /veh OASL (11726364_x_at) / RFU SOX15 (11748057_x_at) / Fold change /veh SOX15 (11748057_x_at) / RFU CD79A (11719716_a_at) / Fold change /veh CD79A (11719716_a_at) / RFU HIST1H1D (11736915_at) / Fold change /veh HIST1H1D (11736915_at) / RFU CASKIN2 (11723855_a_at) / Fold change /veh CASKIN2 (11723855_a_at) / RFU LOC730098 (11760151_x_at) / Fold change /veh LOC730098 (11760151_x_at) / RFU OR4N2 (11742367_at) / Fold change /veh OR4N2 (11742367_at) / RFU PRRT2 (11749266_a_at) / Fold change /veh PRRT2 (11749266_a_at) / RFU SNX32 (11753110_a_at) / Fold change /veh SNX32 (11753110_a_at) / RFU CDHR5 (11726645_a_at) / Fold change /veh CDHR5 (11726645_a_at) / RFU RCAN1 (11760418_a_at) / Fold change /veh RCAN1 (11760418_a_at) / RFU FAM167A (11723789_a_at) / Fold change /veh FAM167A (11723789_a_at) / RFU FAM26E (11764081_at) / Fold change /veh FAM26E (11764081_at) / RFU ISYNA1 (11749810_s_at) / Fold change /veh ISYNA1 (11749810_s_at) / RFU ACY1 (11761880_at) / Fold change /veh ACY1 (11761880_at) / RFU 11764098_at / Fold change /veh 11764098_at / RFU SAMD14 (11745864_x_at) / Fold change /veh SAMD14 (11745864_x_at) / RFU NPB (11741838_a_at) / Fold change /veh NPB (11741838_a_at) / RFU TMPRSS6 (11731388_a_at) / Fold change /veh TMPRSS6 (11731388_a_at) / RFU KRTAP10-2 (11738614_at) / Fold change /veh KRTAP10-2 (11738614_at) / RFU ARHGAP8 /// PRR5-ARHGAP8 (11727945_x_at) / Fold change /veh ARHGAP8 /// PRR5-ARHGAP8 (11727945_x_at) / RFU KRTAP5-7 /// NADSYN1 (11734609_at) / Fold change /veh KRTAP5-7 /// NADSYN1 (11734609_at) / RFU RASL12 (11751679_a_at) / Fold change /veh RASL12 (11751679_a_at) / RFU CDKN2B (11736163_a_at) / Fold change /veh CDKN2B (11736163_a_at) / RFU PRF1 (11729649_at) / Fold change /veh PRF1 (11729649_at) / RFU, ZNF638 /// ZNF638-IT1 / Fold change vs veh, ZNF638 /// ZNF638-IT1 / RFU, PANK3 / Fold change vs veh, PANK3 / RFU, SH3YL1 / Fold change vs veh, SH3YL1 / RFU, ZEB2 / Fold change vs veh, ZEB2 / RFU, NRIP1 / Fold change vs veh, NRIP1 / RFU, PTTG1IP / Fold change vs veh, PTTG1IP / RFU, CAPN2 / Fold change vs veh, CAPN2 / RFU, MED14 / Fold change vs veh, MED14 / RFU, SNORA58 / Fold change vs veh, SNORA58 / RFU, C1orf63 / Fold change vs veh, C1orf63 / RFU, LRRFIP1 / Fold change vs veh, LRRFIP1 / RFU, NDUFAF7 / Fold change vs veh, NDUFAF7 / RFU, SLC12A2 / Fold change vs veh, SLC12A2 / RFU, IBTK / Fold change vs veh, IBTK / RFU, ESF1 / Fold change vs veh, ESF1 / Fold change vs veh, TMEM50B / RFU, TAOK1 / Fold change vs veh, TAOK1 / RFU, ACBD3 / Fold change vs veh, ACBD3 / RFU, TMA16 / Fold change vs veh, TMA16 / RFU, RWDD3 / Fold change vs veh, RWDD3 / RFU, BCAT1 / Fold change vs veh, BCAT1 / RFU, EDEM3 / Fold change vs veh, EDEM3 / RFU, TMEM33 / Fold change vs veh, TMEM33 / RFU, WDR75 / Fold change vs veh, WDR75 / RFU, AHCTF1 / Fold change vs veh, AHCTF1 / RFU, TFRC / Fold change vs veh, TFRC / RFU, ZDHHC17 / Fold change vs veh, ZDHHC17 / RFU, NOM1 / Fold change vs veh, NOM1 / RFU, ARL8B / Fold change vs veh, ARL8B / RFU, ZBTB11 / Fold change vs veh, ZBTB11 / RFU, TAMM41 / Fold change vs veh, TAMM41 / RFU, KIAA1704 /// LOC100996395 / Fold change vs veh, KIAA1704 /// LOC100996395 / RFU, ING1 / Fold change vs veh, ING1 / RFU, TRMT61B / Fold change vs veh, TRMT61B / RFU, FUBP3 / Fold change vs veh, FUBP3 / RFU, TP53 / Fold change vs veh, TP53 / RFU, TNKS2 / Fold change vs veh, TNKS2 / RFU, ZFP14 / Fold change vs veh, ZFP14 / RFU, ACTR2 / Fold change vs veh, ACTR2 / RFU, PPP3R1 / Fold change vs veh, PPP3R1 / RFU, PIK3R1 / Fold change vs veh, PIK3R1 / RFU, HNRNPA1 / Fold change vs veh, HNRNPA1 / RFU, RNF170 / Fold change vs veh, RNF170 / RFU, ZNF28 / Fold change vs veh, ZNF28 / RFU, RNGTT / Fold change vs veh, RNGTT / RFU, OGT / Fold change vs veh, OGT / RFU, BRD1 / Fold change vs veh, BRD1 / RFU, MARS / Fold change vs veh, MARS / RFU, ZNF655 / Fold change vs veh, ZNF655 / RFU, FAHD1 / Fold change vs veh, FAHD1 / RFU, BDP1 / Fold change vs veh, BDP1 / RFU, LRRCC1 / Fold change vs veh, LRRCC1 / RFU, ARID1A / Fold change vs veh, ARID1A / RFU, ZNF146 / Fold change vs veh, ZNF146 / RFU, ZNF330 / Fold change vs veh, ZNF330 / RFU, GPN3 / Fold change vs veh, GPN3 / RFU, C9orf123 / Fold change vs veh, C9orf123 / RFU, N4BP2L2 / Fold change vs veh, N4BP2L2 / RFU, ARFIP1 / Fold change vs veh, ARFIP1 / RFU, FAM179B / Fold change vs veh, FAM179B / RFU, BCL10 / Fold change vs veh, BCL10 / RFU, UHRF1BP1L / Fold change vs veh, UHRF1BP1L / RFU, BET1 / Fold change vs veh, BET1 / RFU, CNOT2 / Fold change vs veh, CNOT2 / RFU, ZNF268 / Fold change vs veh, ZNF268 / Fold change vs veh, ZNF507 / RFU, DGCR2 / Fold change vs veh, DGCR2 / RFU, WDSUB1 / Fold change vs veh, WDSUB1 / Fold change vs veh, HSP90B1 /// MIR3652 / RFU, ADSS / Fold change vs veh, ADSS / RFU, GK / Fold change vs veh, GK / RFU, ZNF148 / Fold change vs veh, ZNF148 / RFU, TAF9 / Fold change vs veh, TAF9 / RFU, SLC1A5 / Fold change vs veh, SLC1A5 / RFU, SLMO2 / Fold change vs veh, SLMO2 / RFU, ABCC4 / Fold change vs veh, ABCC4 / RFU, LOC101060439 /// RAP1B / Fold change vs veh, LOC101060439 /// RAP1B / RFU, RFX7 / Fold change vs veh, RFX7 / RFU, GTPBP10 / Fold change vs veh, GTPBP10 / RFU, CNEP1R1 / Fold change vs veh, CNEP1R1 / RFU, BIVM-ERCC5 /// ERCC5 / Fold change vs veh, BIVM-ERCC5 /// ERCC5 / RFU, ILF3 / Fold change vs veh, ILF3 / RFU 11762660_at / Fold change /veh 11762660_at / RFU VCAN (11757783_s_at) / Fold change /veh VCAN (11757783_s_at) / RFU DDX43 (11728927_at) / Fold change /veh DDX43 (11728927_at) / RFU KRT8 (11758188_x_at) / Fold change /veh KRT8 (11758188_x_at) / RFU NKD1 (11759106_at) / Fold change /veh NKD1 (11759106_at) / RFU SRD5A1 (11742802_a_at) / Fold change /veh SRD5A1 (11742802_a_at) / RFU TPSAB1 /// TPSB2 (11721975_s_at) / Fold change /veh TPSAB1 /// TPSB2 (11721975_s_at) / RFU GSTM3 (11746129_a_at) / Fold change /veh GSTM3 (11746129_a_at) / RFU IL23R (11737362_x_at) / Fold change /veh IL23R (11737362_x_at) / RFU TMEM51 (11727254_a_at) / Fold change /veh TMEM51 (11727254_a_at) / RFU PIWIL2 (11732686_x_at) / Fold change /veh PIWIL2 (11732686_x_at) / RFU ORM1 (11744905_x_at) / Fold change /veh ORM1 (11744905_x_at) / RFU CCDC152 (11743942_at) / Fold change /veh CCDC152 (11743942_at) / RFU ECM1 (11717891_a_at) / Fold change /veh ECM1 (11717891_a_at) / RFU IL23R (11748794_a_at) / Fold change /veh IL23R (11748794_a_at) / RFU TNFAIP8L3 (11732012_x_at) / Fold change /veh TNFAIP8L3 (11732012_x_at) / RFU MBOAT4 (11741988_at) / Fold change /veh MBOAT4 (11741988_at) / RFU 11764193_at / Fold change /veh 11764193_at / RFU TMEM53 (11763286_at) / Fold change /veh TMEM53 (11763286_at) / RFU MAGEB2 (11727129_at) / Fold change /veh MAGEB2 (11727129_at) / RFU TMEM200A (11744735_a_at) / Fold change /veh TMEM200A (11744735_a_at) / RFU CCDC152 (11751479_a_at) / Fold change /veh CCDC152 (11751479_a_at) / RFU FAM211A (11726209_a_at) / Fold change /veh FAM211A (11726209_a_at) / RFU RGS16 (11746705_a_at) / Fold change /veh RGS16 (11746705_a_at) / RFU VCAN (11755009_s_at) / Fold change /veh VCAN (11755009_s_at) / RFU RHOB (11743442_s_at) / Fold change /veh RHOB (11743442_s_at) / RFU RGS16 (11720943_a_at) / Fold change /veh RGS16 (11720943_a_at) / RFU RGS16 (11720944_at) / Fold change /veh RGS16 (11720944_at) / RFU, VPS4B / Fold change vs veh, VPS4B / RFU, CREB1 / Fold change vs veh, CREB1 / RFU, DNAJC13 / Fold change vs veh, DNAJC13 / RFU, GNAQ / Fold change vs veh, GNAQ / RFU, CDK5R1 / Fold change vs veh, CDK5R1 / RFU, ZRANB3 / Fold change vs veh, ZRANB3 / RFU, CUL4A / Fold change vs veh, CUL4A / RFU, CCNY / Fold change vs veh, CCNY / RFU, UFL1 / Fold change vs veh, UFL1 / RFU, COG3 / Fold change vs veh, COG3 / RFU, DIAPH2 / Fold change vs veh, DIAPH2 / RFU, SKA2 / Fold change vs veh, SKA2 / RFU, AFF3 / Fold change vs veh, AFF3 / RFU, LMF1 / Fold change vs veh, LMF1 / RFU, IPO11 / Fold change vs veh, IPO11 / RFU, DFFB / Fold change vs veh, DFFB / RFU, FOXP1 / Fold change vs veh, FOXP1 / RFU, CARD8 / Fold change vs veh, CARD8 / RFU, STRN3 / Fold change vs veh, STRN3 / RFU, ADK / Fold change vs veh, ADK / RFU, RASSF2 / Fold change vs veh, RASSF2 / RFU, WIPF1 / Fold change vs veh, WIPF1 / RFU, LARP1B / Fold change vs veh, LARP1B / RFU, RASA1 / Fold change vs veh, RASA1 / RFU, RB1 / Fold change vs veh, RB1 / RFU, PPFIA1 / Fold change vs veh, PPFIA1 / RFU, MAT2A / Fold change vs veh, MAT2A / RFU, CCT5 / Fold change vs veh, CCT5 / RFU, WDR92 / Fold change vs veh, WDR92 / RFU, CUX1 / Fold change vs veh, CUX1 / RFU, TTC7A / Fold change vs veh, TTC7A / RFU, TMEM135 / Fold change vs veh, TMEM135 / RFU, DEPTOR / Fold change vs veh, DEPTOR / RFU, CPM / Fold change vs veh, CPM / RFU, DNAJB6 / Fold change vs veh, DNAJB6 / RFU, CACNA2D3 / Fold change vs veh, CACNA2D3 / RFU, DTX4 / Fold change vs veh, DTX4 / RFU, TFCP2 / Fold change vs veh, TFCP2 / RFU, GMCL1 /// GMCL1P1 / Fold change vs veh, GMCL1 /// GMCL1P1 / RFU, AEBP2 / Fold change vs veh, AEBP2 / RFU, SNHG1 /// SNORD22 /// SNORD25 /// SNORD26 /// SNORD27 /// SNORD28 /// SNORD29 /// SNORD31 / Fold change vs veh, SNHG1 /// SNORD22 /// SNORD25 /// SNORD26 /// SNORD27 /// SNORD28 /// SNORD29 /// SNORD31 / Fold change (Aza/veh), C12orf56 (ProbeSet 11735607_a_at) / Fold change (ACY-1035/veh), C12orf56 (ProbeSet 11735607_a_at) / Fold change (Aza/veh), FGFR1OP (ProbeSet 11751329_s_at) / Fold change (ACY-1035/veh), FGFR1OP (ProbeSet 11751329_s_at) / Fold change (Aza/veh), VPS36 (ProbeSet 11739960_a_at) / Fold change (ACY-1035/veh), VPS36 (ProbeSet 11739960_a_at) / RFU SYPL1 (11715823_x_at) / Fold change /veh SYPL1 (11715823_x_at) / RFU IGFBP7 (11715501_s_at) / Fold change /veh IGFBP7 (11715501_s_at) / RFU REEP3 (11722064_at) / Fold change /veh REEP3 (11722064_at) / RFU IGLL1 (11728026_x_at) / Fold change /veh IGLL1 (11728026_x_at): dose or concentration left out as unconfirmed. As to conditions: MV-4-11 cells, 48 hours.

Regarding `Nc1ncn([C@@H]2O[C@H](CO)[C@@H](O)[C@H]2O)c(=O)n1` [azacitidine], the “Fold change /veh RCAN1 (11760418_a_at)” value was found to be 0.93.

The values above are taken from PMC5218480 (PLoS ONE, 2017).
